Here are results for one compound from US20240148728A1, “NOVEL METHOD TO BLOCK IN[…] DEATH AND IL-1BETA SECRETION CAUSED BY […] UV I[…] GENETIC AND CHEMICAL INHIBITORS OF ZAKA AND THE NLRP1 INFLAMMASOME” (priority 2021, published 2024).

The test system of assay [1] is immortalized keratinocytes (N-TERT). The assay is described as follows: Pyroptosis / apoptosis in N-TERT keratinocytes (morphology, ASC-GFP, PI, Annexin V, immunoblot). The assay is classed as cell-based, human. The text has this: The following antibodies were used in this study: cleaved PARP1 (Abclonal, #WH162766), Cleaved CASP3 (Abclonal, #WH154646), Full length GSDMD-FL (Abcam, #ab210070), IL1β p17 specific (CST, #83186S), CARD8 (Abcam, CARD8-NT: ab19485, CARD8-CT: ab241186), DPP9 (Abcam, ab226334), c-Myc (Santa Cruz Biotechnology, #sc-40), HA tag (Santa Cruz Biotechnology, #sc-805), GAPDH (Santa Cruz Biotechnology, #sc-47724), ASC (Adipogen, #AL-177), CASP1 (Santa Cruz Biotechnology, #sc-622), 11_1B (R&D systems, #AF-201), FLAG (SigmaAldrich, #F3165), NLRP1 (R&D systems, #AF6788), IL18 (Abcam ab207324), cleaved GSDMD-NT (Asp275) (Cell Signaling Technology, #36425), RPL31 (Abclonal, #WH162766), CASP7 (Abcam, ab255818), CASP8 (Abcam, ab32397), cleaved CASP3 (Cell Signaling Technology, #9664). All horseradish peroxidase (HRP)— conjugated secondary antibodies were purchased from Jackson Immunoresearch (goat anti-mouse IgG: 115-035-166; goat anti-rabbit IgG: 111-035-144; and donkey anti-goat IgG: 705-005-147). Blue-Native PAGE was carried out using the Native-PAGE system (ThermoFisher) with 10-20 μg of total lysate. For SDS-PAGE using whole cell lysates, cells were resuspended in tris-buffered saline 1% NP-40 with protease inhibitors (Thermo Scientific, #78430). Protein concentration was determined using the Bradford assay (Thermo Scientific, #23200) and […] of protein loaded, a part from cleaved GSDMD-NT visualisation where […] of protein was used. All primary antibodies were used at 250 ng/ml. Visualisation of ASC oligomerization was previously described (Robinson et al., 2020). For analysis of IL1β and IL-18 cleavage in the media by immunoblotting, samples were concentrated using filtered centrifugation (Merck, Amicon Ultra, #UFC5003BIK). Protein samples were run using immunoblotting, and then visualized using a ChemiDoc Imaging system (Bio-Rad). PhosTag SDS-PAGE was carried out using homemade 10% SDS-PAGE gel, with addition of Phos-tag Acrylamide (Wako Chemicals, AAL-107) to a final concentration of 30 μM and manganese chloride(II) (Sigma-Aldrich, #63535) to 60 μM.
N-TERT-ASC-GFP cells were seeded at a cell density of 3000 cells/well of a 96 black well plate (PerkinElmer, CellCarrier-96 Ultra, #6055300). The next morning cells were treated with chemicals for 6 h or treated in the evening for 24 h before staining. 1 hour before observing the cells on the microscope the cells were stained with 1 μg/ml dilution of propidium iodide (PI, Abcam #ab14083), 10 ng/ml dilution of Hoechst 33342 (Life Technologies, #H21492) or stained with Annexin V Alexa Flour 647 (Life technologies, #A23204) according to the manufacturer's protocol. Stained cells were then imaged on a high content screening microscope (Perkin Elmer Operetta CLS imaging system). Images were then stored and analyzed using the Harmony software (Version 6). Fluorescent and brightfield images acquired on the Operetta high content screening microscope were further analyzed using a scoring system to categorize the percentages of live, apoptotic and pyroptotic cells. For 3 fields of view per treatment the number of live cells per field was counted from the merge of the brightfield and ASC-GFP channels. Only cells which contained ASC-GFP throughout the cytoplasm and nucleus were classed as “live”. The number of pyroptotic cells was calculated using the merge of the brightfield and ASC-GFP channels. Only the cells with GFP specks were classed as “pyroptotic”. The number of apoptotic cells was calculated using the merge of the brightfield, ASC-GFP and Annexin V channels. Cells that were stained positive for Annexin V but without a GFP speck were classified as “apoptotic”. Images of ASC-GFP specks were acquired in 3 random fields in 4′,6-diaminidino-2-phenylindole (DAPI, 358 nm/461) and GFP (469 nm/525 nm) channels using the EVOS microscope (FL Auto M5000, #AM F5000) according to the manufacturer's protocol. […]

For assay [2], the system named is 3D human organotypic skin. The assay is described as follows: 3D organotypic skin histology and cleaved GSDMD-NT immunostaining. The format is cell-based. The procedure: Organotypic cultures were generated by adapting a previously described protocol (Arnette et al., 2016). Briefly, 2 ml of collagen I (4 mg/ml; Corning, #354249) mixed with 7.5×10^5 human fibroblasts were allowed to polymerize over 1-m1 acellular collagen I in 6-well culture inserts (Falcon, #353102) placed in 6-well deep well plate (Falcon, #355467). After 24 hours, 1×10^6 primary human keratinocytes were seeded into the inserts and kept submerged in a 3:1 DMEM (Hyclone, #SH30243.01) and F12 (Gibco, #31765035) mixture with 10% FBS (Hyclone, #SV30160.03), 100 U/ml penicillin-streptomycin (Gibco, #15140122), 10 μM Y-27632 (Tocris, #1254), 10 ng/ml EGF (Sigma-Aldrich, #E9644), 1×10^−10 M cholera toxin (Enzo, #BML-G117-001), 0.4 μg/ml hydrocortisone (Sigma-Aldrich, #H0888), 0.0243 mg/ml adenine (Sigma-Aldrich, #A2786), 5 μg/ml insulin (Sigma-Aldrich, #12643), 5 μg/ml transferrin (Sigma-Aldrich, #T2036) and 2×10^−9 M 3,3′,5′-triiodo-L-thyronine (Sigma-Aldrich, #T6397). After another 24 hours, the organotypic cultures were then raised at the air-liquid interface and fed with the submerged media (without Y-27632 and EGF) below the insert to induce epidermal differentiation. The air-lifting medium was replaced every 2 days and treatments began 10-14 days after airlifting. Organotypic cultures were then harvested 24 hours after treatment and formalin fixed for 24 hours. Fixed tissues were then embedded into wax for histological purposes.
For immunohistochemistry staining of cleaved N-terminal GSDMD a previously established protocol with modifications was used [Wang et al., Cell 180:941-955.e20 (2020)]. Briefly, 5 μm formalin fixed and paraffin embedded sections were deparaffinized and rehydrated through a series of alcohol. The sections were then rehydrated in an antigen retrieval buffer (Dako, Tris-EDTA, pH 9). Sections were then blocked in goat serum for 20 mins at RT before primary antibody incubated overnight at 4° C. Immunostaining was visualised using DAB substrate and chromogen detection kit (Dako, #K3468). Sections were then counterstained with Myer's Hematoxylin.

Assay [3] relates to aortic endothelial cells (HAECs). The assay is described as follows: Inflammasome activation and pyroptosis in aortic endothelial cells. The assay is classed as cell-based, human. Particulars: ANS 1 μM.
Assay [4] concerns mouse bone marrow derived macrophages (BMDMs). The assay is described as follows: ANS-triggered IL1β secretion and cell death in mouse bone marrow derived macrophages. The format is cell-based.

The structures appear in SMILES notation. Entries after “also recorded” stand apart in the source; their conditions may differ.

As for `COc1ccc(C[C@H]2NC[C@H](O)[C@H]2OC(C)=O)cc1` [ANS, Anisomycin], the “mode of cell death (apoptosis / pyroptosis)” value in assay [1] (Annexin V staining and PI inclusion, immunoblot markers) was “caused both apoptosis and pyroptosis; also recorded: activate both forms of cell death”. Further, in assay [1] (NLRP1 KO N-TERT, Annexin V and PI staining), the “mode of cell death in NLRP1 KO cells” value is recorded as “died exclusively through apoptosis”. Also, in assay [1] (immunoblot), the “apoptotic cell death (cleaved caspase-3 and PARP-1)” value was “activated classical apoptotic cell death”; the “biochemical hallmarks of inflammasome activation (ASC polymerization, GSDMD-NT, IL1β p17 in media)” value was “displayed cardinal biochemical hallmarks of inflammasome activation”. Further, in assay [1] (membrane ballooning, ASC-GFP specks, PI uptake), the “morphological hallmarks of inflammasome activation and pyroptotic cell death” value was “rapidly induced the morphological hallmarks of inflammasome activation and pyroptotic cell death”. Besides, the “fraction of pyroptotic cells” value in assay [1] (single cell level, compared with VbP) is reported as “comparable to that induced by VbP”. In addition, in assay [2] (H&E, 24 hours after treatment), the epidermal dyskeratosis result is listed as “caused striking epidermal dyskeratosis”. Besides, in assay [2] (immunostaining), the “cleaved GSDMD N-terminal fragment at the cell membrane” value was “prominently enriched at the cell membrane”. Besides, the “canonical inflammasome activation and pyroptosis” value in assay [3] is “underwent canonical inflammasome activation and pyroptosis”. Further, the “IL1β secretion and cell death, wild-type versus Nlrp1a/b KO” value in assay [4] is “did not differ between wild-type and NIrp1a/b KO”.
